Values quoted from earlier work, collected in patent publication US6746695B1, “Pharmaceutical preparations of bioactive substances extracted from natural sources” (Armadillo Pharmaceuticals, Inc., priority 1998, dated 2004).
Where two headings read alike, the source gives them in different places. Values belong to the compound of their own block, whether it stands above or below them.

Key:
prostoglandin synthetase = target: T1, prostoglandin synthetase (Bos taurus, UniProt O62664); details: enzyme prepared from bovine seminal vesicles; compared with aspirin
T1 construct: prostoglandin synthetase prepared from bovine seminal vesicles; from tissue; host or cells: bovine seminal vesicles
T1 sequence (O62664 25-600): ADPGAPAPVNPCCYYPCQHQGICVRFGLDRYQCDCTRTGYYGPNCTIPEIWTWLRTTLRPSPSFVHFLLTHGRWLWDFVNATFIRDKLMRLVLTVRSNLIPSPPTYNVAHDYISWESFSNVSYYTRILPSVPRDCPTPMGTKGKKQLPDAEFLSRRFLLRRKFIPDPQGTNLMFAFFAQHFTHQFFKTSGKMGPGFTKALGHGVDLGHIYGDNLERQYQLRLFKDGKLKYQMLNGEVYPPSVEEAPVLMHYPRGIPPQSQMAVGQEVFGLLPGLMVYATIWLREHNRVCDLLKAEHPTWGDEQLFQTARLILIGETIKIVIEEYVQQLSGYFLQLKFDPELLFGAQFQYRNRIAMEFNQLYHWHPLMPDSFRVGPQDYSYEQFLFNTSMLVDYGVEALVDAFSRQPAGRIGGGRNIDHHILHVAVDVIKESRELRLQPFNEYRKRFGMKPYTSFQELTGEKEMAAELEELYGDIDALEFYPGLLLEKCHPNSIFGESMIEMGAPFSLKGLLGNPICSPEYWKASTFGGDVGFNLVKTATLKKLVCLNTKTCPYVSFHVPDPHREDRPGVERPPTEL

[1] = chickens
[2] = mice
[3] = Dogs
[4] = rats

Structure (SMILES): COc1cc2c(cc1OC)[C@@H]1C[C@H](C[C@H]3CCCCN31)OC(=O)/C=C\c1ccc(O)c-2c1 [cryogenine]
potency as inhibitor of prostoglandin synthetase relative to aspirin (prostoglandin synthetase): more than twice as potent as aspirin

potency as inhibitor of prostoglandin synthetase relative to aspirin (prostoglandin synthetase): more than twice as potent as aspirin
Structure (SMILES): COc1ccc2c(c1OC)-c1cc(ccc1O)/C=C\C(=O)O[C@H]1C[C@@H]3CCCCC3[C@H]2C1 (stereo partly drawn) [nesodine]

Structure (SMILES): CO[C@H]1[C@@H](OC)C[C@@H](O[C@@H]2O[C@H](CO)[C@@H](O)[C@H](O)[C@H]2O)/C(=C\C#N)[C@@H]1O [Simmondsin]
food intake [1]: reducing food intake
food intake [2]: reducing food intake
weight reduction [3]: useful weight reduction agent
food intake [4]: reducing food intake
